Reference: paper PMC5035034, “Carbohydrate-Binding Non-Peptidic Pradimicins for the Treatment of Acute Sleeping Sickness in Murine Models” (PLoS Pathogens, 2016)

Molecular target: T1, VSG221 (variant surface glycoprotein 221, MITat 1.2) (Trypanosoma brucei, UniProt P26332)
T1 construct: soluble form VSG (sVSG) purified from parental bloodstream forms, N-glycosylated (Asn263, Asn428)
Assay: SPR (Biacore T200) on immobilized VSG221, […]
Assay type: binding

CN[C@@H]1[C@H](O[C@@H]2OC[C@@H](O)[C@H](O)[C@H]2O)[C@@H](O)[C@H](O[C@H]2c3cc(C)c(C(=O)N[C@H](C)C(=O)O)c(O)c3-c3c(cc4c(c3O)C(=O)c3cc(OC)cc(O)c3C4=O)[C@@H]2O)O[C@@H]1C [PRM-A, pradimicin A]
SPR (Biacore T200) on immobilized VSG221, 1.56 to 50 uM: using the high-density parental Tb BSF VSG221 sensorchip, concentration-dependent binding of PRM-A could be observed
